Laboratory results published in US11399539B2, “Heterocyclic compound and harmful arthropod controlling agent containing same” (Sumitomo Chemical Company, Limited, priority 2016, dated 2022).

These compounds were tested on cabbage aphids (Brevicoryne brassicae) (assay: Test Example 8 and Comparative Test: spray on cabbage seedling infested with cabbage aphids). Details: Comparative Test according to Test example 8.
Format: in vivo

Compared with `CCS(=O)(=O)c1cc(C(F)(F)F)cnc1-n1ccc(C(F)(F)F)cc1=O` [A-48], `CCS(=O)(=O)c1cc(C(F)(F)F)cnc1-n1cnc(C(F)(F)F)cc1=O` [C-33] is lower in “Controlling value at 500 ppm (%)” value: 93% for the first, 77% for the second.

First: O=c1cc(C(F)(F)F)ccn1-c1ncc(C(F)(F)F)cc1Cl [Comparative compound 1]
Second: O=c1cc(C(F)(F)F)ncn1-c1ncc(C(F)(F)F)cc1Cl [Comparative compound 2]
The “Controlling value at 500 ppm (%)” value of the first is lower: 7% for the first, 14% for the second.
